Laboratory results taken from US4504414A, “Synthetic pyridyl-alanyl decapeptides having antiovulatory activity” (Board of Regents, The University of Texas System, priority 1983, dated 1985).
“And” between values parts separate entries of the source, which are not always exact repeats. Identical values can stand only once. Like-named read-outs stand apart in the source and are kept apart here.

Assays:
ovulation in rats [1] = assay: Inhibition of ovulation in rats, subcutaneous administration; assay type: in vivo, rat; conditions: for inhibition of ovulation: 40 hrs before anticipated ovulation
Procedure: (§1) Biological Assays. The peptides were assayed for activity to inhibit ovulation in rats, as described [J. Humphries, Y.-P. Wan, K. Folkers and C. Y. Bowers; J. Med. Chem. 21, 120-123 (1978)]. The procedure for assay when the antagonist is administered orally is the same except for the route of administration.

ovulation in the rat = assay: Assays of antagonists for oral activity (inhibition of ovulation in the rat); assay type: in vivo
Procedure: as §1
Analogs I, XI and XII were also tested by the oral route of administration for inhibition of ovulation in the rat, since the projected human application would be by oral administration. The data in Table 3 resulted from the administration at noon. When the administration is at 2:30 PM, effectiveness is reduced, presumably because of the LH surge. Analog I caused 100% AOA at a 2 mg dosage with administration at noon and 71% AOA/2 mg and 50% AOA/1 mg by administration at 2:30 PM Nekola et al. [Science 218, 160-162 (1982)] have reported on the oral activity of I under diverse conditions.

ovulation in rats [2] = conditions: data of Coy et al., cited from earlier work

[N--Ac--(pCl--D-Phe)^1,2,D-2-Pal^3,D-Arg^6,D-Ala^10 ]--LHRH [Analog III]
% AOA (% inhibition of ovulation in rats) (ovulation in rats [1]; dose 1.0 μg): 29% | Rats ovu./No. rats (ovulation in rats [1]; dose 1.0 μg): 5/7

[N--Ac--3,4-diCl--D-Phe^1,pCl--D-Phehu 2,D-3-Pal^3,D-Arg^7, D-Ala^10 ]--LHRH [Analog XII]
Rats ovu./No. rats (ovulation in rats [1]; dose 0.25 μg): 9/9 | % AOA (% inhibition of ovulation in rats) (ovulation in rats [1]; dose 0.5 μg): 82% | Rats ovu./No. rats (ovulation in rats [1]; dose 0.5 μg): 9/11 | No. Ova. (ovulation in the rat; 250 μg, administered at noon): 12.2 ± 1.0 | Rats Ovu./No. Rats (ovulation in the rat; 250 μg, administered at noon): 5/5 | % AOA (ovulation in the rat; 500 μg, administered at noon): 63% | No. Ova. (ovulation in the rat; 500 μg, administered at noon): 5.6 ± 2.7 | Rats Ovu./No. Rats (ovulation in the rat; 500 μg, administered at noon): 3/8

[N--Ac--D-2-Nal^1,pCl--D-Phe^2,D-3-Pal^3,D-Arg^6, D-Ala^10 ]--LHRH [Analog XI]
inhibition of ovulation (ovulation in rats [1]; 10 μg): 100% | inhibition of ovulation (ovulation in rats [1]; 30 μg): 100% | inhibition of ovulation (ovulation in rats [1]; 100 μg): 100% | % AOA (% inhibition of ovulation in rats) (ovulation in rats [1]; dose 0.25 μg): 57% | Rats ovu./No. rats (ovulation in rats [1]; dose 0.25 μg): 3/7 | % AOA (% inhibition of ovulation in rats) (ovulation in rats [1]; dose 0.5 μg): 100% | Rats ovu./No. rats (ovulation in rats [1]; dose 0.5 μg): 0/9 | % AOA (ovulation in the rat; 250 μg, administered at noon): 10% | No. Ova. (ovulation in the rat; 250 μg, administered at noon): 13.0 ± 1.8 | Rats Ovu./No. Rats (ovulation in the rat; 250 μg, administered at noon): 9/10 | % AOA (ovulation in the rat; 500 μg, administered at noon): 56% | No. Ova. (ovulation in the rat; 500 μg, administered at noon): 6.1 ± 2.5 | Rats Ovu./No. Rats (ovulation in the rat; 500 μg, administered at noon): 4/9

[N--Ac--(pCl--D-Phe)^1,2,D-3-Pal^3,6 ]--LHRH [Analog X]
% AOA (% inhibition of ovulation in rats) (ovulation in rats [1]; dose 1.0 μg): 17% | Rats ovu./No. rats (ovulation in rats [1]; dose 1.0 μg): 5/6 | % AOA (% inhibition of ovulation in rats) (ovulation in rats [1]; dose 3.0 μg): 86% | Rats ovu./No. rats (ovulation in rats [1]; dose 3.0 μg): 1/7

[N--Ac--(pCl--D-Phe)^1,2,D-3-Pal^3,D-Arg^6,D-Abu^10 ]--LHRH [Analog IX]
% AOA (% inhibition of ovulation in rats) (ovulation in rats [1]; dose 1.0 μg): 10% | Rats ovu./No. rats (ovulation in rats [1]; dose 1.0 μg): 9/10

[N--Ac--(pCl--D-Phe)^1,2,D-4-Pal^3,6,D-Ala^10 ]--LHRH [Analog VI]
% AOA (% inhibition of ovulation in rats) (ovulation in rats [1]; dose 6.0 μg): 63% and 62.5% | Rats ovu./No. rats (ovulation in rats [1]; dose 6.0 μg): 3/8

[N--Ac--(pCl--D-Phe)^1,2,D-3-Pal^3,D-Arg^6,D-Ala^10 ]--LHRH [Analog II]
% AOA (% inhibition of ovulation in rats) (ovulation in rats [1]; dose 0.5 μg): 58% | Rats ovu./No. rats (ovulation in rats [1]; dose 0.5 μg): 8/19 | % AOA (% inhibition of ovulation in rats) (ovulation in rats [1]; dose 1.0 μg): 78% | Rats ovu./No. rats (ovulation in rats [1]; dose 1.0 μg): 3/14

[N--Ac--(pCl--D-Phe)^1,2,D-3-Pal^3,D-Trp^6,D-Ala^10 ]--LHRH [Analog VIII]
Rats ovu./No. rats (ovulation in rats [1]; dose 1.0 μg): 10/10

[N--Ac-- (pCl--D-Phe)^1,2,D-Trp^3,D-3-Pal^6,D-Ala^10 ]--LHRH [Analog VII]
% AOA (% inhibition of ovulation in rats) (ovulation in rats [1]; dose 2.0 μg): 13%

[N--Ac--(pCl--D-Phe)^1,2,D-Trp^3,D-Arg^6,D-Ala^10 ]--LHRH [Analog I, reference compound]
% AOA (% inhibition of ovulation in rats) (ovulation in rats [2]; dose 0.75 μg): 40% | Rats ovu./No. rats (ovulation in rats [2]; dose 0.75 μg): 6/10 | % AOA (% inhibition of ovulation in rats) (ovulation in rats [2]; dose 1.5 μg): 100% | Rats ovu./No. rats (ovulation in rats [2]; dose 1.5 μg): 0/10 | % AOA (% inhibition of ovulation in rats) (ovulation in rats [1]; dose 1.0 μg): 83% | Rats ovu./No. rats (ovulation in rats [1]; dose 1.0 μg): 1/6 | % AOA (ovulation in the rat; 1 mg, administered at 2:30 PM): 50% | % AOA (ovulation in the rat; 2 mg, administered at 2:30 PM): 71% | % AOA (ovulation in the rat; 2 mg, administered at noon): 100% | No. Ova. (ovulation in the rat; 2 mg, administered at noon): 0 | Rats Ovu./No. Rats (ovulation in the rat; 2 mg, administered at noon): 0/8

[N--Ac--(pCl--D-Phe)^1,2,D-3-Pal^3,6,D-Ala^10 ]--LHRH [Analog V]
% AOA (% inhibition of ovulation in rats) (ovulation in rats [1]; dose 1.0 μg): 50% | Rats ovu./No. rats (ovulation in rats [1]; dose 1.0 μg): 5/10 | % AOA (% inhibition of ovulation in rats) (ovulation in rats [1]; dose 3.0 μg): 100% | Rats ovu./No. rats (ovulation in rats [1]; dose 3.0 μg): 0/7

[N--Ac--(pCl--D-Phe)^1,2,D-4-Pal^3,D-Arg^6,D-Ala^10 ]--LHRH [Analog IV]
% AOA (% inhibition of ovulation in rats) (ovulation in rats [1]; dose 0.5 μg): 14% | Rats ovu./No. rats (ovulation in rats [1]; dose 0.5 μg): 6/7 | % AOA (% inhibition of ovulation in rats) (ovulation in rats [1]; dose 6.0 μg): 33% | Rats ovu./No. rats (ovulation in rats [1]; dose 6.0 μg): 6/9
